From ChEMBL document CHEMBL5150010 (J Med Chem, 2021)
pIC50: −log10 of the molar value.

Legend:
[1] = in vitro; conditions: dog, MDCK cells
[2] = in vitro; conditions: human, liver microsomes
[3] = in vitro; conditions: human, liver microsomes; remark: listed apart in the source
[4] = in vitro; conditions: human, liver
[5] = in vitro; conditions: human, liver microsomes; remark: listed apart in the source
[6] = in vitro; conditions: human, liver microsomes; remark: listed apart in the source
[7] = Volume of distribution in Sprague-Dawley rat at 2 mg/kg, iv measured upto 24 hrs by LC-MS/MS analysis; assay type: ADME, organism-based; conditions: in vivo
[8] = rat, in vivo, po, 20 mg/kg, 24 h
[9] = target: Cytochrome P450 2C9 (Homo sapiens, UniProt P11712); assay type: ADME, microsomes, Liver, Microsome
[10] = Cmax in Sprague-Dawley rat at 2 mg/kg, iv measured upto 24 hrs by LC-MS/MS analysis; assay type: ADME, organism-based; set-up: time < 24 hrs, dose 2 mg/kg, route iv; conditions: in vivo
[11] = Acute toxicity in Kunming mouse assessed as lethargy at 1000 mg/kg, IG observed upto 1 week; assay type: organism-based; conditions: in vivo, po, 168 h, time < 1 weeks
[12] = Half life in Sprague-Dawley rat at 20 mg/kg, po measured upto 24 hrs by LC-MS/MS analysis; assay type: ADME, organism-based; conditions: in vivo
[13] = Subacute toxicity in Kunming mouse assessed as food consumption at 50 mg/kg, IG mesured every second day for 2 weeks; assay type: organism-based; conditions: in vivo, po, 336 h
[14] = Subacute toxicity in Kunming mouse assessed as water consumption at 50 mg/kg, IG mesured every second day for 2 weeks; assay type: organism-based; conditions: in vivo, po, 336 h
[15] = target: Cytochrome P450 3A4 (Homo sapiens, UniProt P08684)
[16] = target: Cytochrome P450 2C19 (Homo sapiens, UniProt P33261); assay type: ADME, microsomes, Liver, Microsome
[17] = Subacute toxicity in female Kunming mouse assessed as increase in body weight at 50 mg/kg, IG mesured every second day for 2 weeks; assay type: organism-based; conditions: in vivo, po, 336 h
[18] = target: T1, Cytochrome P450 1A2 (Homo sapiens, UniProt P05177)
T1 sequence (P05177 whole entry): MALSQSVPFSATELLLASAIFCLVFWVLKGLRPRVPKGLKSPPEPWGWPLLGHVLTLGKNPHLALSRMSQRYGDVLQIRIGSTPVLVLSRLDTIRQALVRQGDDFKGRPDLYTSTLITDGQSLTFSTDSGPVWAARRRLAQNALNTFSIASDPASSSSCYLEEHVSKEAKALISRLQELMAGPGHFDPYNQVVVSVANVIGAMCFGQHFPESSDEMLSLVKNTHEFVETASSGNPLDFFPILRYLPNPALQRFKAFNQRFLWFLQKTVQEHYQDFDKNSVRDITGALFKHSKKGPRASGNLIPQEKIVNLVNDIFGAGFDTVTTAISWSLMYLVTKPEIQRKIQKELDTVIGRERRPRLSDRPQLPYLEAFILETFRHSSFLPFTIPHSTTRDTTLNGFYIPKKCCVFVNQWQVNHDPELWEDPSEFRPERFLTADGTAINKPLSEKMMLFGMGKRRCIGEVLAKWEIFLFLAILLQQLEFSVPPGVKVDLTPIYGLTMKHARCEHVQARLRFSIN

[19] = Acute toxicity in Kunming mouse assessed as increase in body weight at 1000 mg/kg, IG observed upto 1 week; assay type: organism-based; conditions: in vivo, po, 168 h, time < 1 weeks
[20] = Oral bioavailability in Sprague-Dawley rat at 20 mg/kg measured upto 24 hrs by LC-MS/MS analysis; assay type: ADME, organism-based; conditions: in vivo
[21] = in vivo; conditions: Sprague-Dawley, rat, iv, 2 mg/kg
[22] = Acute toxicity in Kunming mouse assessed as animal death at 1000 mg/kg, IG observed upto 1 week; assay type: organism-based; conditions: in vivo, po, 168 h, time < 1 weeks
[23] = in vivo; conditions: Sprague-Dawley, rat, po, 20 mg/kg
[24] = Acute toxicity in Kunming mouse assessed as anorexia at 1000 mg/kg, IG observed upto 1 week; assay type: organism-based; conditions: in vivo, po, 168 h, time < 1 weeks
[25] = Acute toxicity in Kunming mouse assessed as clonic convulsion at 1000 mg/kg, IG observed upto 1 week; assay type: organism-based; conditions: in vivo, po, 168 h, time < 1 weeks
[26] = Subacute toxicity in male Kunming mouse assessed as increase in body weight at 50 mg/kg, IG mesured every second day for 2 weeks; assay type: organism-based; conditions: in vivo, po, 336 h
[27] = Tmax in Sprague-Dawley rat at 20 mg/kg, po measured upto 24 hrs by LC-MS/MS analysis; assay type: ADME, organism-based; conditions: in vivo
[28] = Half life in Sprague-Dawley rat at 2 mg/kg, iv measured upto 24 hrs by LC-MS/MS analysis; assay type: ADME, organism-based; conditions: in vivo
[29] = Subacute toxicity in Kunming mouse assessed as animal death at 50 mg/kg, IG mesured every second day for 2 weeks; assay type: organism-based; conditions: in vivo, po, 336 h
[30] = Tmax in Sprague-Dawley rat at 2 mg/kg, iv measured upto 24 hrs by LC-MS/MS analysis; assay type: ADME, organism-based; conditions: in vivo
[31] = target: Cytochrome P450 2D6 (Homo sapiens, UniProt P10635)
[32] = in vivo; conditions: Sprague-Dawley, rat, iv, 2 mg/kg; remark: listed apart in the source
[33] = Acute toxicity in Kunming mouse assessed as ruffled fur at 1000 mg/kg, IG observed upto 1 week; assay type: organism-based; conditions: in vivo, po, 168 h, time < 1 weeks
[34] = Cmax in Sprague-Dawley rat at 20 mg/kg, po measured upto 24 hrs by LC-MS/MS analysis; assay type: ADME, organism-based; set-up: dose 20 mg/kg, time < 24 hrs, route po; conditions: in vivo
[35] = Inhibition of Influenza A virus H5N1 Neuraminidase
[36] = Inhibition of Influenza A virus H5N2 Neuraminidase
[37] = Inhibition of Influenza A virus H9N2-S2 Neuraminidase
[38] = Inhibition of Influenza A virus H5N1-1220 Neuraminidase

Chain of Cytochrome P450 2C19 (P33261 whole entry): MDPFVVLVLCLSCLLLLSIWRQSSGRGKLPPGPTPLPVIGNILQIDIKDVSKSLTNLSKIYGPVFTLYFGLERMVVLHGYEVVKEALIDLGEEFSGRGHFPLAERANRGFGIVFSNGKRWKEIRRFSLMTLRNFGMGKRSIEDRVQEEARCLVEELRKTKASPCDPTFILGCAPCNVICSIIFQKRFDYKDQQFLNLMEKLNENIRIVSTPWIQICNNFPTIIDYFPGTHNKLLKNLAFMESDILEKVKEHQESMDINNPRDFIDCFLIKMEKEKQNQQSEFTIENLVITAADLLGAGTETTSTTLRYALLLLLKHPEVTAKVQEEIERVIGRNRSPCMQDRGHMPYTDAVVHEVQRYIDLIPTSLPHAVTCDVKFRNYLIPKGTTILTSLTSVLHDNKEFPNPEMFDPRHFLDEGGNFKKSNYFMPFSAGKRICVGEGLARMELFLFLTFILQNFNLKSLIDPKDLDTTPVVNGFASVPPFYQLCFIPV
Chain of Cytochrome P450 2D6 (P10635 whole entry): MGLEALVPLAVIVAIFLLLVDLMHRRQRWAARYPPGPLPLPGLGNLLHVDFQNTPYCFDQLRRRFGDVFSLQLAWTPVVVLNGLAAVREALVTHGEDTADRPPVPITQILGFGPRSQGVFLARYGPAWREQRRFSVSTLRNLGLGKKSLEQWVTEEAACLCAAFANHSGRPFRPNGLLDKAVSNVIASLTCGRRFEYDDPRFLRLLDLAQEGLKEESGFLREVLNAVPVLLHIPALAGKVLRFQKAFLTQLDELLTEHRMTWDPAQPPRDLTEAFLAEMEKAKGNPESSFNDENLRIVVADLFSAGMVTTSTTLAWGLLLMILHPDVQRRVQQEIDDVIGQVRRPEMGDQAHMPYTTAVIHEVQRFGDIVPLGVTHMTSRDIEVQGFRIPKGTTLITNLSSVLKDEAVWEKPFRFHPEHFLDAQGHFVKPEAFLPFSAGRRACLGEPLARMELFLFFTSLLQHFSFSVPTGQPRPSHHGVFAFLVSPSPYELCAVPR
Chain of Cytochrome P450 3A4 (P08684 whole entry): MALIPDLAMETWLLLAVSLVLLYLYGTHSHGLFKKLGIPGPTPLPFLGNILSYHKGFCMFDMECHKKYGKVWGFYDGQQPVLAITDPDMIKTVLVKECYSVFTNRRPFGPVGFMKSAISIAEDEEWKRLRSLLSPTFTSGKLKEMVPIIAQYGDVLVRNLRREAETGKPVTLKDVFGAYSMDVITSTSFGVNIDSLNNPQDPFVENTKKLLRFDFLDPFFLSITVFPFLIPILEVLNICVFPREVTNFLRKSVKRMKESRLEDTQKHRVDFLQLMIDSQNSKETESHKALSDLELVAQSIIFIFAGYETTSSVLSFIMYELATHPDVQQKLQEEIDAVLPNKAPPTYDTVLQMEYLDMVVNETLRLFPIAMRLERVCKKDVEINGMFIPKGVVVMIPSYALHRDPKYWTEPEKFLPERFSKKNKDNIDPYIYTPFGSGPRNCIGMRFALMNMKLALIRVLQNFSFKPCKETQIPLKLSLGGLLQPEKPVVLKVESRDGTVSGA
Chain of Cytochrome P450 2C9 (P11712 whole entry): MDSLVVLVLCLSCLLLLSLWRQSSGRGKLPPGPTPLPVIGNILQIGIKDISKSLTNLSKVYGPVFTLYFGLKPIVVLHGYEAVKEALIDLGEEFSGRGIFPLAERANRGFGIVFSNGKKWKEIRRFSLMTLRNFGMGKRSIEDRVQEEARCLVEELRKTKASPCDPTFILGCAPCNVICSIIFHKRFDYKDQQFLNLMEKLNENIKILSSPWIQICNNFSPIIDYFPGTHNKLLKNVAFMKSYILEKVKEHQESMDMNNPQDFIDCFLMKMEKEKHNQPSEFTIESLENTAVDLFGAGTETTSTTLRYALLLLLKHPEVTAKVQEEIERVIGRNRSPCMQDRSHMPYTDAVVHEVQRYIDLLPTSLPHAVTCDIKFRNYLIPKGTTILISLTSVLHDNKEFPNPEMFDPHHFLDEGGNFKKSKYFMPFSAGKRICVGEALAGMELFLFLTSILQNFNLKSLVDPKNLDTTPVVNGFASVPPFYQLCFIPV

CCC(CC)O[C@@H]1C=C(C(=O)O)C[C@H](N)[C@H]1NC(C)=O [OSELTAMIVIR CARBOXYLATE]
CC50 at 48 h [1]: 250 µM

O=C(O)Cc1ccccc1Nc1c(Cl)cccc1Cl [DICLOFENAC]
microsomal CLint [2]: 168 µL/min/mg | half-life [3]: 8.2 min | CLint scaled [4]: 151 mL/min/kg

C[C@]12CC[C@H]3[C@@H](CCC4=CC(=O)CC[C@@]43C)[C@@H]1CC[C@@H]2O [TESTOSTERONE]
remaining at 1 h [5]: 9.8% | remaining at 1 h [6]: 87.2% | microsomal CLint [2]: 73.6 µL/min/mg | half-life [3]: 18.8 min | CLint scaled [4]: 66.2 mL/min/kg

CCC(CC)O[C@@H]1C=C(C(=O)O)C[C@H](NCc2ccc3c(c2)Cc2ccccc2-3)[C@H]1NC(C)=O
CC50 at 48 h [1]: 250 µM

CCC(CC)O[C@@H]1C=C(C(=O)O)C[C@H](NCc2ccc3sc4ccccc4c3c2)[C@H]1NC(C)=O
Vd [7]: 0.161 L/kg | AUC [8]: 5854 ng·h/mL | remaining at 1 h [5]: 99.6% | pIC50 [9]: 4.22 | Cmax [10]: 13000 ng/mL | Activity [11]: Non-Toxic | half-life [12]: 61.8 min | Activity [13]: Non-Toxic | Activity [14]: Non-Toxic | pIC50 [15]: < 4.00 | pIC50 [16]: < 4.00 | Activity [17]: Toxic | pIC50 [18]: 4.05 | Activity [19]: Toxic | bioavailability [20]: 13.7% | remaining at 1 h [6]: 84.7% | AUC(0-t) at 24 h [21]: 4280 ng·h/mL | Activity [22]: Non-Toxic | AUC(0-t) at 24 h [23]: 5830 ng·h/mL | microsomal CLint [2]: < 9.6 µL/min/mg | Activity [24]: Non-Toxic | CC50 at 48 h [1]: 250 µM | Activity [25]: Non-Toxic | Activity [26]: Toxic | Tmax [27]: 30 min | half-life [28]: 44.6 min | half-life [3]: > 145 min | Activity [29]: Non-Toxic | Tmax [30]: 4.98 min | pIC50 [31]: 4.23 | CLint scaled [4]: < 8.6 mL/min/kg | AUC(0-inf) at 24 h [32]: 4290 ng·h/mL | Activity [33]: Non-Toxic | Cmax [34]: 6300 ng/mL

CCC(CC)O[C@@H]1C=C(C(=O)O)C[C@H](NCc2ccc(Sc3ccccc3)cc2)[C@H]1NC(C)=O
pIC50 [35]: 9.02 | pIC50 [36]: 6.06

CCC(CC)O[C@@H]1C=C(C(=O)O)C[C@H](NCc2ccc3oc4ccccc4c3c2)[C@H]1NC(C)=O
CC50 at 48 h [1]: 250 µM

CCC(CC)O[C@@H]1C=C(C(=O)O)C[C@H](NCc2ccc(-c3ccccc3)cc2)[C@H]1NC(C)=O
pIC50 [37]: 6.24 | pIC50 [38]: 8.72

CCC(CC)O[C@@H]1C=C(C(=O)O)C[C@H](NCc2ccc3c(c2)c2ccccc2n3CC)[C@H]1NC(C)=O
CC50 at 48 h [1]: 250 µM

CCC(CC)O[C@@H]1C=C(C(=O)O)C[C@H](NCc2c3ccccc3cc3ccccc23)[C@H]1NC(C)=O
CC50 at 48 h [1]: 250 µM
